These results are taken from ChEMBL document CHEMBL1208738, “Optimization of privileged structures for selective and potent melanocortin subtype-4 receptor ligands” (Bioorg Med Chem Lett, 2010).

Assay [1] has as its target T1, Melanocortin receptor 4 (Homo sapiens, UniProt P32245). The assay can be described thus: Displacement of [125I]NDP-alpha-MSH from human MC4 receptor expressed in CHO cells. The assay is classed as cell-based. A general note: Loss of bound radioactivity is the signal in a displacement assay; it reports binding, not function.
Assay [2] has as its target T1, Melanocortin receptor 4. The assay can be described thus: Agonist activity at human MC4 receptor expressed in CHO cells assessed as increase of alpha-MSH-induced cAMP accumulation. The assay is classed as functional, cell-based. (In general: Cyclic AMP is a second messenger, typically raised through Gs and lowered through Gi signalling.)
Assay [3] deals with T1, Melanocortin receptor 4. The assay can be described thus: Agonist activity at human MC4 receptor expressed in CHO cells assessed as increase of alpha-MSH-induced cAMP accumulation at 10 uM relative to alpha-MSH. The assay is classed as functional, cell-based.
Assay [4] addresses T2, Melanocortin receptor 3 (Homo sapiens, UniProt P41968). The assay can be described thus: Agonist activity at human MC3 receptor expressed in CHO cells assessed as increase of alpha-MSH-induced cAMP accumulation. The assay is classed as functional, cell-based.
For assay [5], the target named is T3, Melanocyte-stimulating hormone receptor (Homo sapiens, UniProt Q01726). The assay can be described thus: Agonist activity at human MC1 receptor expressed in CHO cells assessed as increase of alpha-MSH-induced cAMP accumulation. The assay is classed as functional, cell-based.
Target sequence in this assay (Q01726 whole entry): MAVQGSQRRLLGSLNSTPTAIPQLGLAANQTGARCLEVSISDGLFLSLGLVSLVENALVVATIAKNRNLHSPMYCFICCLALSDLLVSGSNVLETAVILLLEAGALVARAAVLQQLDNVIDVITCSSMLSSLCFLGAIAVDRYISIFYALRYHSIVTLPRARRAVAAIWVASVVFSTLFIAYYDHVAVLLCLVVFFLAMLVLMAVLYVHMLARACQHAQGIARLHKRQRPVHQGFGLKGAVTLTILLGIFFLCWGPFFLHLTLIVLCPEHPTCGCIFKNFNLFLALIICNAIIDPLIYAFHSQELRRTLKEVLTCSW
Assay [6] concerns the target T4, Melanocortin receptor 5 (Homo sapiens, UniProt P33032). The assay can be described thus: Displacement of [125I]NDP-alpha-MSH from human MC5 receptor expressed in CHO cells. Type of assay: cell-based.
Assay [7] has as its target T2, Melanocortin receptor 3. The assay can be described thus: Displacement of [125I]NDP-alpha-MSH from human MC3 receptor expressed in CHO cells. The assay is classed as cell-based.
The target in assay [8] is T4, Melanocortin receptor 5. The assay can be described thus: Agonist activity at human MC5 receptor expressed in CHO cells assessed as increase of alpha-MSH-induced cAMP accumulation. The assay is classed as functional, cell-based.
Assay [9] deals with T3, Melanocyte-stimulating hormone receptor. Description: Displacement of [125I]NDP-alpha-MSH from human MC1 receptor expressed in CHO cells. Type of assay: cell-based.
Target sequence in this assay (Q01726 whole entry): as above
For assay [10], the target named is T2, Melanocortin receptor 3. The assay can be described thus: Agonist activity at human MC3 receptor expressed in CHO cells assessed as increase of alpha-MSH-induced cAMP accumulation at 10 uM relative to alpha-MSH. The assay is classed as functional, cell-based.
Assay [11] addresses T4, Melanocortin receptor 5. Description: Agonist activity at human MC5 receptor expressed in CHO cells assessed as increase of alpha-MSH-induced cAMP accumulation at 10 uM relative to alpha-MSH. The assay is classed as functional, cell-based.
In assay [12] the target is T3, Melanocyte-stimulating hormone receptor. Description: Agonist activity at human MC1 receptor expressed in CHO cells assessed as increase of alpha-MSH-induced cAMP accumulation at 10 uM relative to alpha-MSH. The assay is classed as functional, cell-based.
Target sequence in this assay (Q01726 whole entry, looked up): as the sequence (Q01726 whole entry) above

What is called IC50 is the concentration needed to halve the response being measured. Higher therefore signals lower potency. What is called EC50 is the concentration needed to bring the measured effect to its halfway point.

T4 sequence (P33032 whole entry): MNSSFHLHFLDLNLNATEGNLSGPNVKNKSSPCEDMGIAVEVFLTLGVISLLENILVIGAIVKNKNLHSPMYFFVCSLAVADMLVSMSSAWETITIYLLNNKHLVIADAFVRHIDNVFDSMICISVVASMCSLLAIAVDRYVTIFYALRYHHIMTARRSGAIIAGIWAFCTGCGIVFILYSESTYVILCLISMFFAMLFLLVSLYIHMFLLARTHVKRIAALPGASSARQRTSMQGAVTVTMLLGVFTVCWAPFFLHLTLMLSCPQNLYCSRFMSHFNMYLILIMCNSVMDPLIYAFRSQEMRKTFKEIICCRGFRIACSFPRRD
T1 sequence (P32245 whole entry): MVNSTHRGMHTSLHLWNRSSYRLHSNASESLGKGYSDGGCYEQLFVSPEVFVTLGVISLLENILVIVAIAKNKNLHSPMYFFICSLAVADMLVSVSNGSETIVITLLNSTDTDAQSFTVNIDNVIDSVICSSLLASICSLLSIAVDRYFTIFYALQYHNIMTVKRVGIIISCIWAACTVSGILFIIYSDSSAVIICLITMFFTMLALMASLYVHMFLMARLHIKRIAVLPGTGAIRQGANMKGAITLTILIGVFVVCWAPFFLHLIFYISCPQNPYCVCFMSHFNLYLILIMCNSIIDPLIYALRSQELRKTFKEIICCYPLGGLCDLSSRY
T2 sequence (P41968 whole entry): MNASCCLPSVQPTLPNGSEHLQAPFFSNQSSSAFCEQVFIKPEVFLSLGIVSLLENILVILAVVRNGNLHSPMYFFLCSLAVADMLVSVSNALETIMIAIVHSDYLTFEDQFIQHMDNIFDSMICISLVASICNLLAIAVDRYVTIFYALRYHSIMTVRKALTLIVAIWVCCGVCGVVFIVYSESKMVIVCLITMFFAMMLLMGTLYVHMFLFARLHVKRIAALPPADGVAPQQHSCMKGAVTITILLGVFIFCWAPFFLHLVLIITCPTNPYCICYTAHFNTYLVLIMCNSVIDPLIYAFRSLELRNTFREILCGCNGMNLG

Consider `CC(C)N(CC(N1CCN(C(=O)[C@@H]2CN(C(C)(C)C)C[C@H]2c2ccc(F)cc2F)CC1)C(C)(C)C)S(C)(=O)=O` (stereo in doubt; 27A) [listing 1 of 2 here], for which the IC50 in assay [1] turned out to be 53 nM. The EC50 in assay [2] came to 19 nM.
As to `CC(=O)N(CC(C1CCCCC1)N1CCN(C(=O)[C@@H]2CN(C(C)(C)C)C[C@H]2c2ccc(F)cc2F)CC1)C(C)C` (single isomer, unassigned; diastereomer 1) [listing 1 of 2 here], the IC50 in [1] is 29 nM. Besides, in assay [2], the EC50 worked out at 50 nM.
Take `CC(C)N(CC(N1CCN(C(=O)[C@@H]2CN(C(C)(C)C)C[C@H]2c2ccc(F)cc2F)CC1)C(C)(C)C)S(C)(=O)=O` (stereo in doubt; 27B) [listing 1 of 2 here]: the Activity in assay [3] is 102%.
In the case of `CC(C)N(CC(C1CCCCC1)N1CCN(C(=O)[C@@H]2CN(C(C)(C)C)C[C@H]2c2ccc(F)cc2F)CC1)C(=O)c1cnn(C(C)C)c1` (single isomer, unassigned; diastereomer 2) [listing 1 of 2 here], the Activity in [3] amounted to 81%.
Regarding `CC(C)N(CC(C1CCCCC1)N1CCN(C(=O)[C@@H]2CN(C(C)(C)C)C[C@H]2c2ccc(F)cc2F)CC1)C(=O)c1cccnn1` (single isomer, unassigned; diastereomer 2) [listing 1 of 2 here], in assay [3], the Activity amounted to 99%.
As for `CC(C)CC(CN(C(C)C)S(C)(=O)=O)N1CCN(C(=O)[C@@H]2CN(C(C)(C)C)C[C@H]2c2ccc(F)cc2F)CC1` (single isomer, unassigned; diastereomer 2), the half-maximal effective concentration (EC50) in assay [4] was 2500 nM; in [5], > 5000 nM; in [2], 19 nM; in assay [8], > 5000 nM. Further, the IC50 in assay [6] came out at 2800 nM; in [1] it was 27 nM; in [7] it was 4900 nM; in [9] it was 5000 nM.
As to `CC(C)N(CC(C1CCCCC1)N1CCN(C(=O)[C@@H]2CN(C(C)(C)C)C[C@H]2c2ccc(F)cc2F)CC1)S(C)(=O)=O` (single isomer, unassigned; diastereomer 1) [listing 1 of 2 here], the Activity in assay [3] stood at 114%.
`CC(C)N(CC(C1CCCCC1)N1CCN(C(=O)[C@@H]2CN(C(C)(C)C)C[C@H]2c2ccc(F)cc2F)CC1)C(=O)c1cccnn1` (single isomer, unassigned; diastereomer 2) [listing 2 of 2 here] had an IC50 in assay [1] of 64 nM. Moreover, the EC50 in assay [2] came to 9.1 nM.
For the molecule `CC(C)CC(CN(C(C)C)S(C)(=O)=O)N1CCN(C(=O)[C@@H]2CN(C(C)(C)C)C[C@H]2c2ccc(F)cc2F)CC1` (single isomer, unassigned; diastereomer 1) [listing 1 of 2 here], the Activity in assay [3] was 117%.
Consider `CC(C)N(CC(C1CCCCC1)N1CCN(C(=O)[C@@H]2CN(C(C)(C)C)C[C@H]2c2ccc(F)cc2F)CC1)C(=O)c1cnn(C(C)C)c1` (single isomer, unassigned; diastereomer 1), for which the concentration giving a half-maximal response (EC50) in assay [4] came to 79 nM; in [5], 520 nM; in assay [2] it was 6.4 nM; in assay [8], 1000 nM. Moreover, the IC50 came out at 620 nM in assay [6], 18 nM in assay [1], 870 nM in assay [7] and 730 nM in [9].
For the molecule `CC(=O)N(CC(CC(C)C)N1CCN(C(=O)[C@@H]2CN(C(C)(C)C)C[C@H]2c2ccc(F)cc2F)CC1)C(C)C` (single isomer, unassigned; diastereomer 1) [listing 1 of 2 here], in assay [1], the 50% inhibitory concentration (IC50) amounted to 49 nM. For the same molecule, the EC50 in assay [2] came out at 29 nM.
For `CC(C)N(CC(N1CCN(C(=O)[C@@H]2CN(C(C)(C)C)C[C@H]2c2ccc(F)cc2F)CC1)C(C)(C)C)S(C)(=O)=O` (stereo in doubt; 27A) [listing 2 of 2 here], the Activity in [3] was determined as 88%.
Same read-out and setting: for `CC(=O)N(CC(N1CCN(C(=O)[C@@H]2CN(C(C)(C)C)C[C@H]2c2ccc(F)cc2F)CC1)C(C)(C)C)C(C)C` (single isomer, unassigned; diastereomer 2) [listing 1 of 2 here] the value was 94%.
With `CCCN(CCC)CC(C1CCCCC1)N1CCN(C(=O)[C@@H]2CN(C(C)(C)C)C[C@H]2c2ccc(F)cc2F)CC1` (some centres undefined), in assay [3], the Activity came to 97%. The same molecule showed an IC50 in assay [1] of 200 nM. Also, the EC50 in assay [2] amounted to 710 nM.
Turning to `CC(C)N(CC(C1CCCCC1)N1CCN(C(=O)[C@@H]2CN(C(C)(C)C)C[C@H]2c2ccc(F)cc2F)CC1)C(=O)c1cnn(C(C)C)c1` (single isomer, unassigned; diastereomer 2) [listing 2 of 2 here], the IC50 in [1] was 62 nM. Further, the EC50 in [2] was determined as 19 nM.
`CC(=O)N(CC(N1CCN(C(=O)[C@@H]2CN(C(C)(C)C)C[C@H]2c2ccc(F)cc2F)CC1)C(C)(C)C)C(C)C` (single isomer, unassigned; diastereomer 1) [listing 1 of 2 here]: the IC50 in assay [1] (cho) was 150 nM. For the same molecule, the EC50 in assay [2] (cho) is 180 nM.
Take `CC(C)CC(CN(C(C)C)S(C)(=O)=O)N1CCN(C(=O)[C@@H]2CN(C(C)(C)C)C[C@H]2c2ccc(F)cc2F)CC1` (single isomer, unassigned; diastereomer 1) [listing 2 of 2 here]: the IC50 in [1] was 88 nM. Besides, the EC50 in assay [2] was 47 nM.
For the molecule `CC(C)N(CC(C1CCCCC1)N1CCN(C(=O)[C@@H]2CN(C(C)(C)C)C[C@H]2c2ccc(F)cc2F)CC1)C(=O)c1cccnn1` (single isomer, unassigned; diastereomer 1) [listing 1 of 2 here], the EC50 in assay [4] turned out to be 90 nM; in [5], 1200 nM; in assay [2], 5.4 nM; in assay [8], 490 nM. The IC50 is 130 nM in [6], 18 nM in assay [1], 770 nM in assay [7] and 1900 nM in assay [9].
Molecule `CC(=O)N(CC(N1CCN(C(=O)[C@@H]2CN(C(C)(C)C)C[C@H]2c2ccc(F)cc2F)CC1)C(C)(C)C)C(C)C` (single isomer, unassigned; diastereomer 2) [listing 2 of 2 here] showed an IC50 in assay [1] of 150 nM. For the same molecule, the EC50 in [2] stood at 180 nM.
`CC(C)N(CC(C1CCCCC1)N1CCN(C(=O)[C@@H]2CN(C(C)(C)C)C[C@H]2c2ccc(F)cc2F)CC1)C(=O)c1ncccn1` (stereo in doubt; 22B) [listing 1 of 2 here]: in assay [1], the IC50 worked out at 130 nM. Moreover, in assay [2], the EC50 is 15 nM.
As to `CC(C)NCC(C1CCCCC1)N1CCN(C(=O)[C@@H]2CN(C(C)(C)C)C[C@H]2c2ccc(F)cc2F)CC1` (some centres undefined), the Activity in [3] was found to be 95%. Further, the IC50 in [1] amounted to 310 nM. For the same molecule, the EC50 in assay [2] came to 240 nM.
Take `CC(C)N(CC(N1CCN(C(=O)[C@@H]2CN(C(C)(C)C)C[C@H]2c2ccc(F)cc2F)CC1)C(C)(C)C)S(C)(=O)=O` (stereo in doubt; 27B) [listing 2 of 2 here]: the concentration for half-maximal inhibition (IC50) in assay [1] was found to be 46 nM. Further, the EC50 in assay [2] came to 44 nM.
Turning to `CC(C)N(CC(C1CCCCC1)N1CCN(C(=O)[C@@H]2CN(C(C)(C)C)C[C@H]2c2ccc(F)cc2F)CC1)C(=O)c1cccnn1` (single isomer, unassigned; diastereomer 1) [listing 2 of 2 here], the Activity in [10] was 108%; in assay [3] it was 102%; in assay [11], 68%; in assay [12], 58%.
With `CC(=O)N(CC(C1CCCCC1)N1CCN(C(=O)[C@@H]2CN(C(C)(C)C)C[C@H]2c2ccc(F)cc2F)CC1)C(C)C` (single isomer, unassigned; diastereomer 1) [listing 2 of 2 here], the Activity in [3] worked out at 134%.
Consider `CC(=O)N(CC(CC(C)C)N1CCN(C(=O)[C@@H]2CN(C(C)(C)C)C[C@H]2c2ccc(F)cc2F)CC1)C(C)C` (single isomer, unassigned; diastereomer 1) [listing 2 of 2 here], for which the Activity in assay [3] stood at 101%.
The molecule `CC(C)N(CC(C1CCCCC1)N1CCN(C(=O)[C@@H]2CN(C(C)(C)C)C[C@H]2c2ccc(F)cc2F)CC1)S(C)(=O)=O` (single isomer, unassigned; diastereomer 1) [listing 2 of 2 here] registered an IC50 in [1] of 15 nM. In addition, in [2], the EC50 turned out to be 25 nM.
Regarding `CC(C)CN(CC(C)C)CC(C1CCCCC1)N1CCN(C(=O)[C@@H]2CN(C(C)(C)C)C[C@H]2c2ccc(F)cc2F)CC1` (some centres undefined), in assay [3], the Activity came out at 10%. In [1], this molecule returned an IC50 of 1900 nM. In addition, in assay [2], the EC50 was 6700 nM.
Take `CC(C)N(CC(C1CCCCC1)N1CCN(C(=O)[C@@H]2CN(C(C)(C)C)C[C@H]2c2ccc(F)cc2F)CC1)C(=O)c1ncccn1` (single isomer, unassigned; diastereomer 1): the Activity in assay [3] was 98%.
`CC(=O)N(CC(N1CCN(C(=O)[C@@H]2CN(C(C)(C)C)C[C@H]2c2ccc(F)cc2F)CC1)C(C)(C)C)C(C)C` (single isomer, unassigned; diastereomer 1) [listing 2 of 2 here]: the Activity in [3] amounted to 89%.
For the molecule `CC(=O)N(CC(CC(C)C)N1CCN(C(=O)[C@@H]2CN(C(C)(C)C)C[C@H]2c2ccc(F)cc2F)CC1)C(C)C` (single isomer, unassigned; diastereomer 2), the EC50 in assay [4] was 880 nM; in assay [5], 560 nM; in assay [2], 9.7 nM; in assay [8], > 5000 nM. The IC50 in assay [6] worked out at 1100 nM; in assay [1] it was 23 nM; in assay [7], 4700 nM; in [9], 3600 nM.
With `CC(C)N(CC(C1CCCCC1)N1CCN(C(=O)[C@@H]2CN(C(C)(C)C)C[C@H]2c2ccc(F)cc2F)CC1)C(=O)c1ncccn1` (stereo in doubt; 22B) [listing 2 of 2 here], in assay [3], the Activity came out at 88%.
